Experimental findings from patent US11618742B2, “Radical polymerization initiator, composition containing same, cured product of composition, production method for cured product, and compound” (ADEKA CORPORATION, priority 2018, dated 2023) are described below.

Molecules are shown by their SMILES.

A short description of data set [1]: Solubility in water. The note with it: 25° C., RH 65%, 100 g deionized water, added 0.1 g at a time. Format: physicochemical. The method, then:
Specifically, the measurement is performed by adding the compound in an amount of 0.1 g at a time.

The nature of data set [2]: Maximum absorption wavelength (absorption spectrum, spectrophotometer). Format: physicochemical. The source says:
(2) load the measurement aqueous solution to a quartz cell (optical path length=10 mm, thickness 1.25 mm), and measure the absorption spectrum using a spectrophotometer (e.g., visible-ultraviolet absorption spectrometer V-670 manufactured by JASCO Corporation). As the absorption spectrum of the measurement aqueous solution, a corrected absorption spectrum obtained by measuring the absorption spectrum of water alone in advance and deducting this absorption spectrum of water from the absorption spectrum of the measurement aqueous solution is used. […] (2) The thus obtained measurement aqueous solutions were each loaded to a quartz cell (optical path length—10 mm, thickness 1.25 mm), and an absorption spectrum was measured using a spectrophotometer (e.g., visible-ultraviolet absorption spectrometer V-670 manufactured by JASCO Corporation). […] Further, as the absorption spectrum, a corrected absorption spectrum obtained by measuring the absorption spectrum of the solvent itself in advance and deducting this absorption spectrum of the solvent from the absorption spectrum of the measurement solution was used.

The mark [3] stands for this setting: 0.1%-by-mass aqueous solution, range of 300 nm to 600 nm.
[4] abbreviates: measurement solution in acetonitrile (low solubility in water).

Take `O=C(O)c1cccc2c(=O)c3ccccc3sc12` [Compound 1]: the “Solubility in 100 parts by mass of water” value in data set [1] was determined as 0.9 parts by mass.

For the compound `CC(C)(O)C(=O)c1ccc(OCCO)cc1` [Compound 101], the “Solubility in 100 parts by mass of water” value in data set [1] is reported as 0.8 parts by mass. The Maximum absorption wavelength in data set [2] (setting [3]) was found to be 270 nm.

`O=C(O)c1cccc2c(=O)c3ccccc3sc12` [Compound 106, thioxanthone carboxylic acid]: the “Solubility in 100 parts by mass of water” value in data set [1] was less than 0.1 parts by mass. In addition, the Maximum absorption wavelength in data set [2] (setting [4]) turned out to be 391 nm.

In turn, `O=C(c1ccccc1)c1ccccc1` [Compound 103, benzophenone] displayed a Maximum absorption wavelength in data set [2] (setting [4]) of 253 nm.

In the case of `Cc1cc(C)c(C(=O)P(=O)(O)c2ccccc2)c(C)c1` [Compound 105], the “Solubility in 100 parts by mass of water” value in data set [1] was not below 50 parts by mass. Besides, the Maximum absorption wavelength in data set [2] (setting [3]) is 371 nm.

For `O=C(O)c1cccc2c(=O)c3ccccc3sc12` [Compound 61], in data set [1], the “Solubility in 100 parts by mass of water” value was determined as 1.2 parts by mass.

As to `CC12CCC(C(=O)C1=O)C2(C)C` (centres unmarked) [Compound 104, camphor quinone], in data set [1], the “Solubility in 100 parts by mass of water” value is listed as less than 0.1 parts by mass. Also, the Maximum absorption wavelength in data set [2] (setting [4]) turned out to be 460 nm.
